Assay results reported in PMC7406636, “In vivo and in silico characterization of apocynin in reducing organ oxidative stress: A pharmacokinetic and pharmacodynamic study” (Pharmacology Research & Perspectives, 2020).

Key:
[1] = tested on: O2·‐ production in tissue homogenates; assay: O2·- production in tissue homogenates by lucigenin-chemiluminescence after iv injection (PD profile); format: in vivo, mouse; conditions: iv 5 mg/kg
Description: All studies were performed in accordance with the protocols approved by the Home Office under the Animals (Scientific Procedures) Act 1986, UK. For the PKPD study, male CD1 mice (Charles River Ltd) at 12 weeks of age with a body weight range between 25 and 30 g were used for the study. Mice were fasted 12 hours before bolus iv injection of apocynin at 5 mg/kg body weight (dosing volume 5 mL/kg) via a lateral tail vein. Control mice were injected with vehicle (solvent of apocynin) at each time points. Four mice/per time points were sacrificed at 0, 1, 2.5, 5, 15, 30, 60 minutes and then at 3, 6, 12, and 24 hours after iv injection of apocynin. Blood samples were collected and centrifuged at 2000 g, 4°C for 10 minutes for plasma collection. Urine samples were collected from bladders. Tissues were harvested for further experiments. ROS production was measured using tissue homogenates by three complementary techniques: lucigenin (5 µmol/L)‐chemiluminescence (Molecular Devices); DHE (2 µmol/L) fluorescence on brain tissue sections, and brain tissue lipid peroxidation by malondialdehyde (MDA) assay as described previously. ^5 The specificity of detection of O2·‐ was confirmed by adding tiron (10 mmol/L), a non‐enzymatic O2·‐ scavenger. The enzymatic sources of O2·‐ production were identified using inhibitors targeting nitric oxide synthase (L‐N^G‐Nitro arginine methyl ester, L‐NAME, 100 μmol/L), the mitochondrial complex‐1 enzymes (rotenone, 50 μmol/L), xanthine oxidase (oxypurinol, 250 μmol/L), flavo‐proteins (diphenyleneiodonium, DPI, 20 μmol/L), or superoxide dismutase (SOD) (200 U/mL). The DHE fluorescence was captured using a Nikon fluorescence microscope (Eclipse Ti2‐E). The fluorescence intensity was quantified from at least three random images per section with three sections/per sample.

[2] = tested on: ROS production on brain sections; assay: In situ ROS production by DHE fluorescence on brain sections after iv injection; format: in vivo, mouse; conditions: brain sections harvested at 15 minutes after iv injection
Description: (§1) ROS production was measured using tissue homogenates by three complementary techniques: lucigenin (5 µmol/L)‐chemiluminescence (Molecular Devices); DHE (2 µmol/L) fluorescence on brain tissue sections, and brain tissue lipid peroxidation by malondialdehyde (MDA) assay as described previously. ^5 The specificity of detection of O2·‐ was confirmed by adding tiron (10 mmol/L), a non‐enzymatic O2·‐ scavenger. The enzymatic sources of O2·‐ production were identified using inhibitors targeting nitric oxide synthase (L‐N^G‐Nitro arginine methyl ester, L‐NAME, 100 μmol/L), the mitochondrial complex‐1 enzymes (rotenone, 50 μmol/L), xanthine oxidase (oxypurinol, 250 μmol/L), flavo‐proteins (diphenyleneiodonium, DPI, 20 μmol/L), or superoxide dismutase (SOD) (200 U/mL). The DHE fluorescence was captured using a Nikon fluorescence microscope (Eclipse Ti2‐E). The fluorescence intensity was quantified from at least three random images per section with three sections/per sample.

[3] = LogBB calculation, Log (Cbrain/Cplasma); format: in vivo, mouse
Description: LogBB of apocynin was calculated as described previously ^22 using the equation: LogBB = Log (Cbrain/Cplasma). We used the values from 1 to 30 minutes detected in both plasma and brain tissues for LogBB calculation since apocynin plasma concentration was fallen to ~10 ng/mL (limit of quantification) after 30 minutes of iv injection, n = 3 mice/per time point.

[4] = tested on: O2·‐ production in tissue homogenates; assay: O2·- production in organ homogenates by lucigenin-chemiluminescence, HFD mouse model; format: in vivo; conditions: HFD 16 weeks, apocynin 5 mmol/L in drinking water, vs HFD
Description: as §1, with “Apocynin was supplied in drinking water (5 mmol/L) for the treatment group. Body weights were measured weekly. Mice were sacrificed at 11 months of age and organs were harvested for further experiments. ROS” for “ROS”, “sample. […] Body weights were measured weekly. […] The body weights were recorded and organs were harvested.” for “sample.”

[5] = Body weight in HFD-induced obesity and accelerated aging mouse model; format: in vivo; conditions: HFD 16 weeks, apocynin 5 mmol/L in drinking water, vs HFD without apocynin
Description: Apocynin was supplied in drinking water (5 mmol/L) for the treatment group. Body weights were measured weekly. Mice were sacrificed at 11 months of age and organs were harvested for further experiments. […] Male mice at 7 months of age were randomly assigned (n = 6/per group) to a HFD: 45% kcal fat, 20% kcal protein and 35% kcal carbohydrate (Special Diets Services), or a NCD: 9.3% kcal fat, 25.9% kcal protein, and 64.8% kcal carbohydrate (LabDiet Ltd) for 16 weeks. Apocynin was supplied in drinking water (5 mmol/L). Body weights were measured weekly. Mice (at 11 months) were fasted 8 hours before being sacrificed by an overdose of pentobarbital. The body weights were recorded and organs were harvested.

[6] = set-up: method as in PMID 23455672; conditions: cited from earlier work
[7] = set-up: method as in PMID 25140304; conditions: rats, intraperitoneal injection, urine collected at 20 hours; cited from earlier work

**Q.** Which inhibition at 5 mg/kg ([1]; Mus musculus, 1 min, brain homogenates, starting at 1 minute) does the source give for `COc1cc(C(C)=O)ccc1O` [Apocynin, 4‐hydroxy‐3‐methoxyacetophenone] here?
**A.** Its inhibition at 5 mg/kg is 60.4 ± 25.4%.

**Q.** What about the “duration of inhibition of brain O2·- production” value ([1]; brain homogenates) of the same compound?
**A.** The value was “up to 60 minutes”.

**Q.** What about the “start of inhibition of brain O2·- production” value ([1]; brain homogenates) of the same compound?
**A.** Its value is 1 min.

**Q.** What about the “time at which inhibition of brain O2·- production became significant” value ([1]; brain homogenates) of the same compound?
**A.** Its value is 2.5 min.

**Q.** What about the “time at which inhibition of brain O2·- production disappeared” value ([1]; brain homogenates) of the same compound?
**A.** Its value is 3 h.

**Q.** What about the “duration of inhibition of heart O2·- production” value ([1]; heart homogenates) of the same compound?
**A.** Its value is ~ 60 minutes.

**Q.** And the “start of inhibition of heart O2·- production” value ([1]; heart homogenates)?
**A.** Its value is 1 min.

**Q.** And the “time at which inhibition of heart O2·- production became significant” value ([1]; heart homogenates)?
**A.** Its value is 2.5 min.

**Q.** What about the “time at which inhibition of heart O2·- production disappeared” value ([1]; heart homogenates) of the same compound?
**A.** The value was 3 h.

**Q.** And the “duration of inhibition of liver O2·- production” value ([1]; liver homogenates)?
**A.** The value was ~ 60 minutes.

**Q.** And the “time at which inhibition of liver O2·- production disappeared” value ([1]; liver homogenates)?
**A.** The value was 3 h.

**Q.** And the “onset of inhibition of liver O2·- production” value ([1]; liver homogenates, vs time 0 control)?
**A.** Its value is no more than 1 min.

**Q.** And the “effect on DHE fluorescence (in situ ROS production)” value [2]?
**A.** The value was “inhibited effectively”.

**Q.** And the LogBB ([3]; at 1 minute after iv injection)?
**A.** The LogBB was −0.1.

**Q.** What about the LogBB at 30 min ([3]; male, CD1, mouse, brain/plasma, 5 mg/kg, at 30 minutes after iv injection) of the same compound?
**A.** The LogBB at 30 min was 1.

**Q.** What about the “effect on HFD-induced ROS production / oxidative stress in brain, liver and heart” value [4] of the same compound?
**A.** Its value is “significant reductions”.

**Q.** And the “effect on HFD-induced ROS production / oxidative stress in brain, liver and heart” value ([4]; listed as apocynin)?
**A.** Its value is “reduced significantly”.

**Q.** And the “effect on HFD-induced increase in body weight” value [5]?
**A.** The value was “significantly reduced”.

**Q.** What about the pKa value [6] of the same compound?
**A.** Its pKa value is 8.17.

**Q.** What about the “apocynin recovered in unchanged form in urine” value [7] of the same compound?
**A.** The value was 80%.
